Source: patent US20220324865A1 (Bayer Aktiengesellschaft, priority 2018, published 2022)
Where a name gives a salt, the structure may show the parent alone.

Biological target: T1, human EP3 receptor (Homo sapiens, UniProt P43115)
T1 construct: expressed in transfected cells; host or cells: CHO K1 (Chinese Hamster Ovary), stably co-transfected with Galpha16 and mitochondrial clytin
T1 sequence (P43115 1-390): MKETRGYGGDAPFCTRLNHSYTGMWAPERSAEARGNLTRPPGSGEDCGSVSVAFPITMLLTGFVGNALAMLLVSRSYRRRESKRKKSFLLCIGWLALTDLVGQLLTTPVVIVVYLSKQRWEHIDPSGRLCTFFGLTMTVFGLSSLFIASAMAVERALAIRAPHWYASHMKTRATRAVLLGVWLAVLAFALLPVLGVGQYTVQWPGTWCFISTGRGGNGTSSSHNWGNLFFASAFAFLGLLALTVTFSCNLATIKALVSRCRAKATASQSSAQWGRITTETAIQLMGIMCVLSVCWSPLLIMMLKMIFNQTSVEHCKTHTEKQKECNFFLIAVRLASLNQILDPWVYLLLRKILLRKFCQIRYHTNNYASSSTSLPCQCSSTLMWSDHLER
Test: Cellular in vitro assay for determining EP3 receptor activity (human EP3 cell line, sulprostone-stimulated calcium luminescence)
Assay type: cell-based
Settings: CHO cells expressing human EP3 and mitochondrial Clytin; antagonist mode, sulprostone at EC50; read-out: EP3 CHO mtCLY ANTAG IC50
Procedure, shortened: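 Antagonist activity was measured as inhibition of the luminescent calcium signal elicited by EC50 sulprostone, following 10 min compound pretreatment. The cell line was recombinant CHO K1 co-expressing human EP3, Gα16 and the photoprotein Clytin, reconstituted with coelenterazine.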

IC50 [nM]	Structure (SMILES)
4	CN1CC(NC(=O)c2cc3c(=O)[nH]c(-c4ccc5c(c4)CCCC5)cn3n2)(c2ccc(F)cc2)C1 [Example 1-99, N-[3-(4-Fluorophenyl)-1-methylazetidin-3-yl]-4-oxo-6-(5,6,7,8-tetrahydronaphthalen-2-yl)-4,5-dihydropyrazolo[1,5-a]pyrazine-2-carboxamide]
1.87	COc1ccc(CNC(=O)c2cc3c(=O)[nH]c(-c4ccc5ccccc5c4)cn3n2)cc1OC [Example 1-103, N-(3,4-Dimethoxybenzyl)-6-(2-naphthyl)-4-oxo-4,5-dihydropyrazolo[1,5-a]pyrazin-2-carboxamide]
2.26	COc1ccc(C(C)NC(=O)c2cc3c(=O)[nH]c(-c4ccc5ccccc5c4)cn3n2)cn1 (stereo not drawn) [Example 1-104, N-[1-(6-Methompyridin-3-yl)ethyl]-6-(2-naphthyl)-4-oxo-5H-pyrazolo[1,5-a]pyrazine-2-carboxamide]
1.48	C[C@@H](NC(=O)c1cc2c(=O)[nH]c(-c3ccc4ccccc4n3)cn2n1)c1ccc(F)cc1 [Example 1-105, N-[(1R)-1-(4-Fluorophenyl)ethyl]-4-oxo-6-(quinolin-2-yl)-4,5-dihydropyrazolo[1,5-a]pyrazine-2-carboxamide]
9.55	CN1CCC(NC(=O)c2nn3cc(-c4ccc5ccccc5c4)[nH]c(=O)c3c2C(F)(F)F)(c2ccc(F)cc2)CC1 [Example 1-116, N-[4-(4-Fluorophenyl)-1-methylpiperidin-4-yl]-6-(naphthalen-2-yl)-4-oxo-3-(trifluoromethyl)-4,5-dihydropyrazolo[1,5-a]pyrazine-2-carboxamide]
1.38	CC(NC(=O)c1nn2cc(-c3ccc4ccccc4c3)[nH]c(=O)c2c1C(F)(F)F)c1cnc(OCC(F)(F)F)cn1 (stereo not drawn) [Example 1-117, 6-(2-Naphthyl)-4-oxo-N-[1-[5-(2,2,2-trifluoroethoxy)pyrazin-2-yl]ethyl]-3-(trifluoromethyl)-5H-pyrazolo[1,5-a]pyrazine-2-carboxamide]
3.95	CC(COc1cc(Cl)cc(Cl)c1)NC(=O)c1nn2cc(-c3ccc4ccccc4c3)[nH]c(=O)c2c1C(F)(F)F (stereo not drawn) [Example 1-118, N-[2-(3,5-Dichlorophenoxy)-1-methylethyl]-6-(2-naphthyl)-4-oxo-3-(trifluoromethyl)-5H-pyrazolo-[1,5-a]pyrazine-2-carboxamide]
3.3	CN1CC(NC(=O)c2nn3cc(-c4ccc5ccccc5c4)[nH]c(=O)c3c2Cl)(c2ccc(F)cc2)C1 [Example 1-119, 3-Chloro-N-[3-(4-fluorophenyl)-1-methylazetidin-3-yl]-6-(naphthalen-2-yl)-4-oxo-4,5-dihydropyrazolo[1,5-a]pyrazine-2-carboxamide]
0.495	O=C(N[C@H](CCO)c1ccc(F)cc1)c1nn2cc(-c3ccc4ccccc4c3)[nH]c(=O)c2c1Cl [Example 1-120, 3-Chloro-N-[(1R)-1-(4-fluorophenyl)-3-hydroxypropyl]-6-(naphthalen-2-yl)-4-oxo-4,5-dihydropyrazolo[1,5-a]pyrazine-2-carboxamide]
4.18	Cc1cc(-c2cn3nc(C(=O)N[C@H](CCO)c4ccc(F)cc4)cc3c(=O)[nH]2)ccc1C(F)(F)F [Example 1-121, N-[(1R)-1-(4-Fluorophenyl)-3-hydroxpropyl]-6-[3-methyl-4-(trifluoromethyl)phenyl]-4-oxo-4,5-dihydropyrazolo[1,5-a]pyrazine-2-carboxamide]
3.2	Cc1ccc(-c2[nH]c(=O)c3c(C(F)(F)F)c(C(=O)N[C@H](C)c4ccc(F)cc4)nn3c2C)cc1C [Example 1-123, 6-(3,4-Dimethylphenyl)-N-[(1R)-1-(4-fluorophenyl)ethyl]-7-methyl-4-oxo-3-(trifluoromethyl)-4,5-dihydropyrazolo[1,5-a]pyrazine-2-carboxamide]
3.35	O=C(NC1(c2ccc(F)cc2)CNC1)c1nn2cc(-c3ccc4ccccc4c3)[nH]c(=O)c2c1C(F)(F)F [Example 1-125, N-[3-(4-Fluorophenyflazetidin-3-yl]-6-(naphthalen-2-yl)-4-oxo-3-(trifluoromethyl)-4,5-dihydropyrazolo[1,5-a]pyrazine-2-carboxamide hydrochloride]

The remaining lines, values behind:

Structure (SMILES)	IC50 [nM]
C[C@@H](NC(=O)c1cc2c(=O)[nH]c(-c3ccc4c(c3)CCC4)cn2n1)c1ccc(F)cc1 [Example 1-98, 6-(2,3-Dihydro-1H-inden-5-yl)-N-[(1R)-1-(4-fluorophenyl)ethyl]-4-oxo-4,5-dihydropyrazolo[1,5-a]-pyrazine-2-carboxamide]	3.45
O=C(N[C@H](CCO)c1ccc(F)cc1)c1cc2c(=O)[nH]c(-c3ccc4c(c3)CCCC4)cn2n1 [Example 1-100, N-[(1R)-1-(4-Fluorophenyl)-3-hydroxypropyl]-4-oxo-6-(5,6,7,8-tetrahydronaphthalen-2-yl)-4,5-dihydropyrazolo[1,5-a]pyrazine-2-carboxamide]	0.965
C[C@@H](NC(=O)c1cc2c(=O)[nH]c(-c3ccc4c(c3)CCCC4)cn2n1)c1ccc(F)cc1 [Example 1-101, N-[(1R)-1-(4-Fluorophenyl)ethyl]-4-oxo-6-(5,6,7,8-tetrahydronaphthalen-2-yl)-4,5-dihydropyrazolo[1,5-a]pyrazine-2-carboxamide]	1.7
C[C@@H](NC(=O)c1cc2c(=O)[nH]c(-c3ccc4c(c3)N(C)CCO4)cn2n1)c1ccc(F)cc1 [Example 1-102, N-[(1R)-1-(4-Fluorophenyl)ethyl]-6-(4-methyl-3,4-dihydro-2H-1,4-benzoxazin-6-yl)-4-oxo-4,5-dihydropyrazolo[1,5-a]pyrazin-2-carboxamide]	1.35
COc1ccc(C(C)NC(=O)c2cc3c(=O)[nH]c(-c4ccc5ccccc5n4)cn3n2)cn1 (stereo not drawn) [Example 1-106, N-[1-(6-Methoxypyridin-3-yl)ethyl]-4-oxo-6-(quinolin-2-yl)-4,5-dihydropyrazolo[1,5-a]pyrazine-2-carboxamide]	5.65
COc1ccc(C(C)NC(=O)c2cc3c(=O)[nH]c(-c4ccc(Cl)c(C)c4)cn3n2)cn1 (stereo not drawn) [Example 1-107, 6-(4-Chloro-3-methylphenyl)-N-[1-(6-methoxypyridin-3-yl)ethyl]-4-oxo-4,5-dihydropyrazolo[1,5-a]-pyrazine-2-carboxamide]	3.97
COc1ccc([C@@H](C)NC(=O)c2cc3c(=O)[nH]c(-c4ccc5c(c4F)OCCO5)cn3n2)cn1 [Example 1-108, 6-(5-Fluoro-2,3-dihydro-1,4-benzodioxin-6-yl)-N-[(1R)-1-(6-methoxpyridin-3-yl)ethyl]-4-oxo-4,5-dihydropyrazolo[1,5-a]pyrazine-2-carboxamide]	2.5
CN(C)C[C@@H](NC(=O)c1cc2c(=O)[nH]c(-c3ccc4c(c3F)OCCO4)cn2n1)c1ccccc1 [Example 1-109, N-[(1S)-2-(Dimethylamino)-1-phenylethyl]-6-(5-fluoro-2,3-dihydro-1,4-benzodioxin-6-yl)-4-oxo-4,5-dihydropyrazolo[1,5-a]pyrazine-2-carboxamide]	5.97
O=C(NC(c1ccccc1)C(F)F)c1cc2c(=O)[nH]c(-c3ccc4c(c3F)OCCO4)cn2n1 (stereo not drawn) [Example 1-110, N-(2,2-Difluoro-1-phenylethyl)-6-(5-fluoro-2,3-dihydro-1,4-benzodioxin-6-yl)-4-oxo-4,5-dihydro-pyrazolo[1,5-a]pyrazine-2-carboxamide]	1.01
COc1ccc([C@@H](C)NC(=O)c2cc3c(=O)[nH]c(-c4ccc5c(c4F)OCCO5)c(F)n3n2)cn1 [Example 1-111, 7-Fluoro-6-(5-fluoro-2,3-dihydro-1,4-benzodioxin-6-yl)-N-[(1R)-1-(6-methoxypyridin-3-yl)ethyl]-4-oxo-4,5-dihydropyrazolo[1,5-a]pyrazine-2-carboxamide]	8.8
C[C@@H](NC(=O)c1cc2c(=O)[nH]c(-c3ccc4c(c3)COCC4)cn2n1)c1ccc(F)cc1 [Example 1-112, 6-(3,4-Dihydro-1H-2-benzopyran-7-yl)-N-[(1R)-1-(4-fluorophenyl)ethyl]-4-oxo-4,5-dihydropyrazolo[1,5-a]pyrazine-2-carboxamide]	3.35
Cc1cccc2ncc(-c3cn4nc(C(=O)N[C@H](CCO)c5ccc(F)cc5)cc4c(=O)[nH]3)cc12 [Example 1-113, N-[(1R)-1-(4-Fluorophenyl)-3-hydroxypropyl]-6-(5-methylquinolin-3-yl)-4-oxo-4,5-dihydropyrazolo[1,5-a]pyrazine-2-carboxamide]	3.8
Cc1cccc2ncc(-c3cn4nc(C(=O)N[C@H](CCO)c5ccccc5)cc4c(=O)[nH]3)cc12 [Example 1-114, N-[(1R)-3-Hydroxy-1-phenylpropyl]-6-(5-methylquinolin-3-yl)-4-oxo-4,5-dihydropyrazolo[1,5-a]-pyrazine-2-carboxamide]	3.15
CCN(CCO)CC(NC(=O)c1cc2c(=O)[nH]c(-c3cnc4cccc(C)c4c3)cn2n1)c1ccccc1 (stereo not drawn) [Example 1-115, N-[2-[Ethyl(2-hydroxyethyl)amino]-1-phenylethyl]-6-(5-methyl-3-quinolyl)-4-oxo-5H-pyrazolo-[1,5-a]pyrazine-2-carboxamide]	3.4
Cc1ccc(-c2[nH]c(=O)c3c(C(F)(F)F)c(C(=O)N[C@H](CCO)c4ccc(F)cc4)nn3c2C)cc1C [Example 1-122, 6-(3,4-Dimethylphenyl)-N-[(1R)-1-(4-fluorophenyl)-3-hydroxpropyl]-7-methyl-4-oxo-3-(trifluoromethyl)-4,5-dihydropyrazolo[1,5-a]pyrazine-2-carboxamide]	4.13
